# Data from patent publication US10392367B2, “IRE1 small molecule inhibitors” (QUENTIS THERAPEUTICS, INC., priority 2017, dated 2019).
# What was measured:
# IRE1a [1] = molecular target: T1, IRE1a (Homo sapiens, UniProt O75460); assay: IRE1a Endoribonuclease Nanoluciferase Assay (XBP1 luciferase reporter in 293 T cells); type: cell-based; settings: 293 T cells transfected with XBP1 luciferase reporter plasmid
# Description: Compounds disclosed herein were assessed for disruption of IRE1 signaling using a IRE1a Endoribonuclease Nanoluciferase Assay. Briefly, 2.5×10^6 293 T cells were seeded in a 10 cm^2 tissue culture plate. About 24 hours later, the cells were transfected with Effectene. In a 15 mL Tube, the following was added: 2 μg XBP1 luciferase reporter plasmid (PGK-Luc2-P2A-XBP1u-Nanoluciferase-PEST); 300 μl EC buffer; and 16 μl Enhancer, followed by incubation at room temp for 5 minutes. Next, 60 μl Effectene (Qiagen 301427) was added, followed by incubation at room temperature for 10 minutes. 2.6 mL cDMEM media was added. Old media was aspirated from the cells, followed by addition of 7 mL fresh media. Full transfection mixture was added dropwise to cells. Cells were incubated for 6 hours, followed by tripsinization, centrifugation and resuspension in 11 mL media. 100 uL of cells were plated per a well in a 96 well plate. A day later, stressors of choice+/− inhibitors were added. To harvest, media was aspirated from cells completely, then 50 uL 1× passive lysis buffer (Promega: E1941) was added per well and put on shaker (300 rpm) for 30 minutes at room temperature. Cells were centrifuged, and 15 uL sample per well was added to a new, opaque white 384 well plate (Corning 3570). 15 uL OneGlo (nanoluciferase kit, Promega N1630) was added. Plates were spun down, placed on shaker (300 rpm) for 10 minutes. Plates were read on luminometer, 1000 ms integration time per well. 15 uL Stop and Glo (nanoluciferase kit) was added. Plates were spun down, placed on shaker (300 rpm) for 10 minutes. Plates were read on luminometer, 1000 ms second integration time per well. Recordings are provided below in Table 4.
# IRE1a [2] = molecular target: T1, IRE1a; assay: In vitro FRET assay (XBP1 RNA probe cleavage by IRE1a); type: biochemical; design: purchased SignalChem; settings: SignalChem IRE1a protein 2 nM
# Description: In vitro FRET assay was performed to evaluate the ability of select compounds to inhibit IRE1, the results of which are summarized in Table 3. To perform the in vitro FRET assay, 1× complete assay buffer (CAB; […] DTT, 50 mM sodium citrate pH 7.15, 1 mM magnesium acetate, 0.02% tween 20) was used to dilute SignalChem IRE1a protein to a final concentration of 2 nM. Selected compounds were serially diluted with DMSO in a non-binding black 384-well plate for a total of 15 ul in each well. 2 ul of the serially diluted compound or DMSO control were then added to new wells containing 98 ul of 1×CAB, for a total volume of 100 ul, 10 ul of which were then transferred to wells of a new plate. 5 ul of the diluted IRE1a was then added to each well. 5 ul of a […] XBP1 RNA probe was then added to each well. Fluorescence was then read over 30 minutes in kinetic mode (485/515 nm).
# Two RNA probes were used, XBP1 wildtype (SEQ ID NO: 2) which is able to be spliced by active IRE1a or XBP1 mutant (SEQ ID NO: 3) which is unable to be spliced. Each probe contained a 5′ 6-FAM modification and a 3′ IOWA Black FQ modification.
# T1 sequence (O75460 19-977): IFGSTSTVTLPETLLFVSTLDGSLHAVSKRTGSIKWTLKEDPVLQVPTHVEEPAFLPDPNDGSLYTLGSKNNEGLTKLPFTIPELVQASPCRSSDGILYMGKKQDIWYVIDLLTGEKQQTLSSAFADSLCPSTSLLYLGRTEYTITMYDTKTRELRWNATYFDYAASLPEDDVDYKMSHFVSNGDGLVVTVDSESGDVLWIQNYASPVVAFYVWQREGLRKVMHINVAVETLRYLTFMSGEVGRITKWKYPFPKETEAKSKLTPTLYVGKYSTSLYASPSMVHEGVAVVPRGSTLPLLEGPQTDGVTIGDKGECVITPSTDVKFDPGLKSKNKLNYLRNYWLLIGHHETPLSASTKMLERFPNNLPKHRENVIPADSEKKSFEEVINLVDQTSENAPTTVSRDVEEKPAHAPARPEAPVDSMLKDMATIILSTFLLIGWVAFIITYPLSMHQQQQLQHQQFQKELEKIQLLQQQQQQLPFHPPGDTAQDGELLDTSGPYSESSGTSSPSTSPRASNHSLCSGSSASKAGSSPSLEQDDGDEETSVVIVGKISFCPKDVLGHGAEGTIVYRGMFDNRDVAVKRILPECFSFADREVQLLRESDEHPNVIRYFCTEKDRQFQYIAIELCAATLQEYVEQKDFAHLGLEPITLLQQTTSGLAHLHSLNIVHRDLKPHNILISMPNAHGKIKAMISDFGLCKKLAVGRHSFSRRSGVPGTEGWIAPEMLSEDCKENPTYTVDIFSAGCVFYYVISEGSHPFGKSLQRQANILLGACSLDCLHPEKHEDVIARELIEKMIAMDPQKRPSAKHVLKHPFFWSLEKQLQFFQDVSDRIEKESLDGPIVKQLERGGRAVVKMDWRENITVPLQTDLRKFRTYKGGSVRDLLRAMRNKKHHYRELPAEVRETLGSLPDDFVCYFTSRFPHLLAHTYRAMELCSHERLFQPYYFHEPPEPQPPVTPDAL
Structure (SMILES),EC50 (IRE1a [1]),IC50 (IRE1a [2]),Mean EC50 (IRE1a [1])
"Cn1nc(NC(=O)Cc2cccc(C(F)(F)F)c2)cc1-c1ccc2nc(N[C@H]3CC[C@H](N)CC3)ncc2c1 [Compound 1, N-(5-(2-(((1r,4r)-4-aminocyclohexyl)amino)quinazolin-6-yl)-1-methyl-1H-pyrazol-3-yl)-2-(3-(trifluoromethyl)phenyl)acetamide]",> 100 nM,50 to 100 nM,–
"CCc1cc(-c2cc(NC(=O)Cc3cccc(C(F)(F)F)c3)nn2C)cc2cnc(N[C@H]3CC[C@H](N)CC3)nc12 [Compound 2, N-(5-(2-(((1r,4r)-4-aminocyclohexyl)amino)-8-ethylquinazolin-6-yl)-1-methyl-1H-pyrazol-3-yl)-2-(3-(trifluoromethyl)phenyl)acetamide]",50 to 100 nM,≤ 5 nM,–
"CCc1cc(-c2cc(NC(=O)Cc3cccc(C(F)(F)F)c3)nn2C)cc2cnc(N[C@H]3CC[C@H](O)CC3)nc12 [Compound 3, N-(5-(8-ethyl-2-(((1r,4r)-4-hydroxycyclohexyl)amino)quinazolin-6-yl)-1-methyl-1H-pyrazol-3-yl)-2-(3-(trifluoromethyl)phenyl)acetamide]",–,> 100 nM,–
"CCc1cc(-c2cc(NC(=O)Nc3ccc(OC4CCN(C)CC4)c(C(F)(F)F)c3)nn2C)cc2cnc(N[C@H]3CC[C@H](N)CC3)nc12 [Compound 4; Formic Acid, 1-(5-(2-(((1r,4r)-4-aminocyclohexyl)amino)-8-ethylquinazolin-6-yl)-1-methyl-1H-pyrazol-3-yl)-3-(4-((1-methylpiperidin-4-yl)oxy)-3-(trifluoromethyl)phenyl)urea]",≤ 5 nM,≤ 5 nM,–
"CCc1cc(-c2cc(NC(=O)Cc3cc(C(F)(F)F)cc(C(F)(F)F)c3)nn2C)cc2cnc(N[C@H]3CC[C@H](N)CC3)nc12 [Compound 5, N-(5-(2-(((1r,4r)-4-aminocyclohexyl)amino)-8-ethylquinazolin-6-yl)-1-methyl-1H-pyrazol-3-yl)-2-(3,5-bis(trifluoromethyl)phenyl)acetamide]",–,5 to 50 nM,–
"CCc1cc(-c2cc(NC(=O)Cc3ccc(C(F)(F)F)cc3)nn2C)cc2cnc(N[C@H]3CC[C@H](N)CC3)nc12 [Compound 6, N-(5-(2-(((1r,4r)-4-aminocyclohexyl)amino)-8-ethylquinazolin-6-yl)-1-methyl-1H-pyrazol-3-yl)-2-(4-(trifluoromethyl)phenyl)acetamide]",> 100 nM,≤ 5 nM,–
"CCc1cc(-c2cc(NC(=O)Cc3ccc(C(F)(F)F)c(F)c3)nn2C)cc2cnc(N[C@H]3CC[C@H](N)CC3)nc12 [Compound 7, N-(5-(2-(((1r,4r)-4-aminocyclohexyl)amino)-8-ethylquinazolin-6-yl)-1-methyl-1H-pyrazol-3-yl)-2-(3-fluoro-4-(trifluoromethyl)phenyl)acetamide]",> 100 nM,≤ 5 nM,–
"CCc1cc(-c2cc(NC(=O)Cc3cccc(OC(F)(F)F)c3)nn2C)cc2cnc(N[C@H]3CC[C@H](N)CC3)nc12 [Compound 11, N-(5-(2-(((1r,4r)-4-aminocyclohexyl)amino)-8-ethylquinazolin-6-yl)-1-methyl-1H-pyrazol-3-yl)-2-(3-(trifluoromethoxy)phenyl)acetamide]",> 100 nM,5 to 50 nM,–
"CCc1cc(-c2cc(NC(=O)Cc3cc(C(F)(F)F)ccc3C(F)(F)F)nn2C)cc2cnc(N[C@H]3CC[C@H](N)CC3)nc12 [Compound 12, N-(5-(2-(((1r,4r)-4-aminocyclohexyl)amino)-8-ethylquinazolin-6-yl)-1-methyl-1H-pyrazol-3-yl)-2-(2,5-bis(trifluoromethyl)phenyl)acetamide]",–,≤ 5 nM,A-B
"CCc1cc(-c2cc(NC(=O)Cc3cc(F)ccc3C(F)(F)F)nn2C)cc2cnc(N[C@H]3CC[C@H](N)CC3)nc12 [Compound 13, N-(5-(2-(((1r,4r)-4-aminocyclohexyl)amino)-8-ethylquinazolin-6-yl)-1-methyl-1H-pyrazol-3-yl)-2-(5-fluoro-2-(trifluoromethyl)phenyl)acetamide]",> 100 nM,5 to 50 nM,–
"CCc1cc(-c2cc(NC(=O)[C@@H](O)c3ccccc3)nn2C)cc2cnc(N[C@H]3CC[C@H](N)CC3)nc12 [Compound 15, (S)-N-(5-(2-(((1r,4r)-4-aminocyclohexyl)amino)-8-ethylquinazolin-6-yl)-1-methyl-1H-pyrazol-3-yl)-2-hydroxy-2-phenylacetamide]",–,5 to 50 nM,–
"CCc1cc(-c2cc(NC(=O)Cc3cccc(C#N)c3)nn2C)cc2cnc(N[C@H]3CC[C@H](N)CC3)nc12 [Compound 17, N-(5-(2-(((1r,4r)-4-aminocyclohexyl)amino)-8-ethylquinazolin-6-yl)-1-methyl-1H-pyrazol-3-yl)-2-(3-cyanophenyl)acetamide]",–,5 to 50 nM,–
"CCc1cc(-c2cc(NC(=O)Cc3cc(F)cc(C(F)(F)F)c3)nn2C)cc2cnc(N[C@H]3CC[C@H](N)CC3)nc12 [Compound 20, N-(5-(2-(((1r,4r)-4-aminocyclohexyl)amino)-8-ethylquinazolin-6-yl)-1-methyl-1H-pyrazol-3-yl)-2-(3-fluoro-5-(trifluoromethyl)phenyl)acetamide]",–,5 to 50 nM,–
"CCc1cc(-c2cc(NC(=O)Nc3cc(C(F)(F)F)cc(C(F)(F)F)c3)nn2C)cc2cnc(N[C@H]3CC[C@H](N)CC3)nc12 [Compound 21, 1-(5-(2-(((1r,4r)-4-aminocyclohexyl)amino)-8-ethylquinazolin-6-yl)-1-methyl-1H-pyrazol-3-yl)-3-(3,5-bis(trifluoromethyl)phenyl)urea]",–,50 to 100 nM,–
"CCc1cc(-c2cc(NC(=O)[C@H](N)c3ccccc3)nn2C)cc2cnc(N[C@H]3CC[C@H](N)CC3)nc12 [Compound 22, (R)-2-amino-N-(5-(2-(((1r,4r)-4-aminocyclohexyl)amino)-8-ethylquinazolin-6-yl)-1-methyl-1H-pyrazol-3-yl)-2-phenylacetamide]",–,> 100 nM,–
"CCc1cc(-c2cc(CC(=O)Nc3cccc(C(F)(F)F)c3)nn2C)cc2cnc(N[C@H]3CC[C@H](N)CC3)nc12 [Compound 23, 2-(5-(2-(((1r,4r)-4-aminocyclohexyl)amino)-8-ethylquinazolin-6-yl)-1-methyl-1H-pyrazol-3-yl)-N-(3-(trifluoromethyl)phenyl)acetamide]",–,> 100 nM,–
"CCc1cc(-c2cc(NC(=O)[C@@H](N)c3ccccc3)nn2C)cc2cnc(N[C@H]3CC[C@H](N)CC3)nc12 [Compound 24, (S)-2-amino-N-(5-(2-(((1r,4r)-4-aminocyclohexyl)amino)-8-ethylquinazolin-6-yl)-1-methyl-1H-pyrazol-3-yl)-2-phenylacetamide]",–,> 100 nM,–
"Cc1c(-c2cc(NC(=O)Cc3cc(C(F)(F)F)ccc3C(F)(F)F)nn2C)ccc2nc(N[C@H]3CC[C@H](N)CC3)ncc12 [Compound 45, N-(5-(2-(((1r,4r)-4-aminocyclohexyl)amino)-5-methylquinazolin-6-yl)-1-methyl-1H-pyrazol-3-yl)-2-(2,5-bis(trifluoromethyl)phenyl)acetamide]",–,> 100 nM,–
"CCc1cc(-c2cc(NC(=O)Cc3cccc(C(F)(F)F)c3)nn2C)cc2cnc(N[C@H]3CC[C@H](N(C)CCOC)CC3)nc12 [Compound 46, N-(5-(8-ethyl-2-(((1r,4r)-4-((2-methoxyethyl)(methyl)amino)cyclohexyl)amino)quinazolin-6-yl)-1-methyl-1H-pyrazol-3-yl)-2-(3-(trifluoromethyl)phenyl)acetamide]",–,> 100 nM,–
"CCc1cc(-c2cc(NC(=O)Cc3cc(C(F)(F)F)ccc3C(F)(F)F)nn2C)cc2cnc(N[C@H]3CC[C@](C)(N)CC3)nc12 [Compound 49, N-(5-(2-(((1r,4r)-4-amino-4-methylcyclohexyl)amino)-8-ethylquinazolin-6-yl)-1-methyl-1H-pyrazol-3-yl)-2-(2,5-bis(trifluoromethyl)phenyl)acetamide]",–,50 to 100 nM,–
"CCc1cc(-c2cc(NC(=O)Cc3cc(C(F)(F)F)ccc3C(F)(F)F)nn2C)cc2cnc(N[C@H]3CC[C@@](C)(N)CC3)nc12 [Compound 50, N-(5-(2-(((1s,4s)-4-amino-4-methylcyclohexyl)amino)-8-ethylquinazolin-6-yl)-1-methyl-1H-pyrazol-3-yl)-2-(2,5-bis(trifluoromethyl)phenyl)acetamide]",–,50 to 100 nM,–
